From US20240300976A1, “COMPOUNDS AS MODULATORS OF ENDOPLASMIC RETICULUM AMINOPEPTIDASE 1 (ERAP1)” (GREY WOLF THERAPEUTICS LIMITED, priority 2020, published 2024) come the findings set out here.

The assay concerns the target T1, ERAP1 (Homo sapiens, UniProt Q9NZ08).
T1 construct: Purified ERAP1(37-941)-10His (ERAP1); 10His (C)
In words: ERAP1 mediated hydrolysis of an amide substrate (10-mer inhibition assay), biochemical system. Conditions: 10-mer substrate, incubated at 23° C. for 1 h, excitation 279 nm and emission 355 nm; read-out: IC50 vs Decapeptide WRVYEKC(Dnp)ALK-acid (where Dnp is Dinitrophenyl maleimide) (10-mer). The source says:
This peptide has minimal fluorescence as the N-terminal tryptophan residue's fluorescence is quenched by the dinitrophenol (DNP) residue within the peptide. However, as ERAP1 hydrolyses the N-terminal amide bond and tryptophan is released this internal quenching is lost and the reaction is monitored by the increase in tryptophan fluorescence over the course of the assay. For the purposes of this application this assay is referred to as the “1 Omer inhibition assay” and compound potencies are calculated and expressed as 1050 as would be familiar to a person skilled in the art.
Biological Assay 1: ERAP1 Mediated Hydrolysis of an Amide Substrate Measured in a Biochemical System
• 1× Assay buffer (AB): 25 mM Bis-tris propane, 0.05% w/v Hydroxypropylmethylcellulose pH 7.75 made with Optima grade water • Decapeptide WRVYEKC(Dnp)ALK-acid (where Dnp is Dinitrophenyl maleimide) (10-mer) • L-Leucine 7-amido-4-methylcoumarin (L-AMC) • Purified ERAP1(37-941)-10His (ERAP1)
12.5 μL ERAP1 enzyme in 1×AB was combined with 250 nL test compound in DMSO. 12.5 μL of either 240 μM L-AMC in 1×AB or 100 μM 10-mer in 1×AB was added to the reaction and incubated at 23° C. for 1 h. For detection, plates were read at excitation 365 nm and emission 442 nm (L-AMC) or excitation 279 nm and emission 355 nm (10-mer). Compound IC50 was determined using a 4-parameter equation.

T1 sequence (Q9NZ08 37-941): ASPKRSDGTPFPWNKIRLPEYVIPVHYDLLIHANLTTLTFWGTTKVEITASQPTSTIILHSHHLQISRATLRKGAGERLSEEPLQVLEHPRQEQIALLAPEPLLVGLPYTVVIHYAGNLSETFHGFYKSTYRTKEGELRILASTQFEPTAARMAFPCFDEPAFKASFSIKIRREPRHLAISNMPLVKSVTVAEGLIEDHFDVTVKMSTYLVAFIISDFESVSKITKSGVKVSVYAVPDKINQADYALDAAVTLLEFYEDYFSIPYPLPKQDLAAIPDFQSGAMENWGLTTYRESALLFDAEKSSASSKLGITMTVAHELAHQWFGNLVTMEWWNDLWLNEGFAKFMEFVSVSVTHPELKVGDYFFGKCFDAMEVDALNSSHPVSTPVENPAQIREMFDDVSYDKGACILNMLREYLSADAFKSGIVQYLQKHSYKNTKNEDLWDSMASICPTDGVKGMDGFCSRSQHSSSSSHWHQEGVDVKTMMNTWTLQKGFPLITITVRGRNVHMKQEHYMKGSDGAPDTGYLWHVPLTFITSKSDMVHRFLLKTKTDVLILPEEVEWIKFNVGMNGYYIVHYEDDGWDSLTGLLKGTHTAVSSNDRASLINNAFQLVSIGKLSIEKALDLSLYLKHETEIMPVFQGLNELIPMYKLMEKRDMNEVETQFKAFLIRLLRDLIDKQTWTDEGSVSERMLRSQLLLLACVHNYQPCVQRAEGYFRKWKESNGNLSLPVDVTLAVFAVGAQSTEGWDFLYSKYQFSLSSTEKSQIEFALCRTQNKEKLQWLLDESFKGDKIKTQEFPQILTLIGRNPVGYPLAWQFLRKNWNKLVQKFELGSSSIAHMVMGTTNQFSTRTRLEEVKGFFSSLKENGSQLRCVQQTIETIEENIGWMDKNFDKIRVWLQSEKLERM

For `N#Cc1cc2c(cc1Cl)N1CCCCC1C/C=C/COc1ccc(C(=O)O)cc1S(=O)(=O)N2` (single isomer, unassigned) [Example 45, (E)-3-chloro-2-cyano-7,8,9,9a,10,13-hexahydro-6H, 20H-dibenzo[b,f]pyrido[1,2-h][1]oxa[4]thia[5,8]diazacyclotridecine-17-carboxylic acid 19,19-dioxide], the IC50 was under 250 nM.

Take `N#Cc1cc2c(cc1Cl)N1CCCCC1C/C=C/COc1ccc(C(=O)O)cc1S(=O)(=O)N2` (single isomer, unassigned) [Example 46, (E)-3-chloro-2-cyano-7,8,9,9a,10,13-hexahydro-6H, 20H-dibenzo[b,f]pyrido[1,2-h][1]oxa[4]thia[5,8]diazacyclotridecine-17-carboxylic acid 19,19-dioxide]: the IC50 was under 250 nM.

For `N#Cc1cc2c(cc1Cl)N1CCCCC1/C=C/COc1ccc(C(=O)O)cc1S(=O)(=O)N2` (single isomer, unassigned) [Example 47, (E)-3-chloro-2-cyano-6,7,8,9,9a,12-hexahydro-19H-dibenzo[b,f]pyrido[1,2-h][1]oxa[4]thia[5,8]diazacyclododecine-16-carboxylic acid 18,18-dioxide], the half-inhibitory concentration (IC50) fell in the range of 250 to 1000 nM.

As for `N#Cc1cc2c(cc1Cl)N1CCCCC1/C=C/COc1ccc(C(=O)O)cc1S(=O)(=O)N2` (single isomer, unassigned) [Example 48, (E)-3-chloro-2-cyano-6,7,8,9,9a,12-hexahydro-19H-dibenzo[b,f]pyrido[1,2-h][1]oxa[4]thia[5,8]diazacyclododecine-16-carboxylic acid 18,18-dioxide], the 50% inhibitory concentration (IC50) is under 250 nM.

Turning to `CS(=O)(=O)c1ccc2c(c1)NS(=O)(=O)c1cc(C(=O)O)ccc1OCCCC1CCCCN21` (single isomer, unassigned) [Example 49, 2-(methylsulfonyl)-6,7,8,9,9a,10,11,12-octahydro-19H-dibenzo[b,f]pyrido[1,2-h][1]oxa[4]thia[5,8]diazacyclododecine-16-carboxylic acid 18,18-dioxide], the IC50 is under 250 nM.

Consider `CS(=O)(=O)c1ccc2c(c1)NS(=O)(=O)c1cc(C(=O)O)ccc1OCCCC1CCCCN21` (single isomer, unassigned) [Example 50, 2-(methylsulfonyl)-6,7,8,9,9a,10,11,12-octahydro-19H-dibenzo[b,f]pyrido[1,2-h][1]oxa[4]thia[5,8]diazacyclododecine-16-carboxylic acid 18,18-dioxide], for which the IC50 lay in the range of 250 to 1000 nM.

In the case of `N#Cc1cc2c(cc1F)N1CCCCC1CCCCOc1ccc(C(=O)O)cc1S(=O)(=O)N2` (single isomer, unassigned) [Example 55, 2-cyano-3-fluoro-7,8,9,9a,10,11,12,13-octahydro-6H,20H-dibenzo[b,f]pyrido[1,2-h][1]oxa[4]thia[5,8]diazacyclotridecine-17-carboxylic acid 19,19-dioxide], the IC50 was under 250 nM.

Consider `N#Cc1cc2c(cc1F)N1CCCCC1CCCCOc1ccc(C(=O)O)cc1S(=O)(=O)N2` (single isomer, unassigned) [Example 56, 2-cyano-3-fluoro-7,8,9,9a,10,11,12,13-octahydro-6H,20H-dibenzo[b,f]pyrido[1,2-h][1]oxa[4]thia[5,8]diazacyclotridecine-17-carboxylic acid 19,19-dioxide], for which the IC50 was under 250 nM.

As to `CS(=O)(=O)NC(=O)c1ccc2c(c1)S(=O)(=O)Nc1cc(C#N)c(Cl)cc1N1CCCC[C@H]1/C=C/CO2` (single isomer, unassigned) [Example 58], the half-inhibitory concentration (IC50) was over 1000 nM.

For the compound `CS(=O)(=O)NC(=O)c1ccc2c(c1)S(=O)(=O)Nc1cc(C#N)c(Cl)cc1N1CCCCC1C/C=C/CO2` (single isomer, unassigned) [Example 62], the 50% inhibitory concentration (IC50) was over 1000 nM.

On to `N#Cc1cc2c(cc1Cl)N1CCCC[C@@H]1COCCOc1ccc(C(=O)O)cc1S(=O)(=O)N2` (single isomer, unassigned) [Example 67], for which the concentration for half-maximal inhibition (IC50) was under 250 nM.

For `N#Cc1cc2c(cc1Cl)N1CCCC[C@H]1COCCOc1ccc(C(=O)O)cc1S(=O)(=O)N2` (single isomer, unassigned) [Example 68], the IC50 is under 250 nM.

Regarding `N#Cc1ccc2c(c1)NS(=O)(=O)c1cc(C(=O)O)ccc1OCCCC1CCCCN21` (stereo not drawn) [Example 5, 2-cyano-6,7,8,9,9a,10,11,12-octahydro-19H-dibenzo[b,f]pyrido[1,2-h][1]oxa[4]thia[5,8]diazacyclododecine-16-carboxylic acid 18,18-dioxide], the half-inhibitory concentration (IC50) is under 250 nM.

Take `N#Cc1cc2c(cc1Cl)N1CCCC[C@@H]1CCCCOc1ccc(C(=O)O)cc1S(=O)(=O)N2` [Example 52, (R)-3-chloro-2-cyano-7,8,9,9a,10,11,12,13-octahydro-6H,20H-dibenzo[b,f]pyrido[1,2-h][1]oxa[4]thia[5,8]diazacyclotridecine-17-carboxylic acid 19,19-dioxide]: the IC50 is under 250 nM.

In the case of `N#Cc1cc2c(cc1Cl)N1CCCC[C@H]1CCCCOc1ccc(C(=O)O)cc1S(=O)(=O)N2` [Example 53, (S)-3-chloro-2-cyano-7,8,9,9a,10,11,12,13-octahydro-6H, 20H-dibenzo[b,f]pyrido[1,2-h][1]oxa[4]thia[5,8]diazacyclotridecine-17-carboxylic acid 19,19-dioxide], the IC50 was under 250 nM.

In the case of `N#Cc1cc2c(cc1F)N1CCCC[C@H]1CCCCOc1ccc(C(=O)O)cc1S(=O)(=O)N2` [Example 57, (S)-2-cyano-3-fluoro-7,8,9,9a,10,11,12,13-octahydro-6H, 20H-dibenzo[b,f]pyrido[1,2-h][1]oxa[4]thia[5,8]diazacyclotridecine-17-carboxylic acid 19,19-dioxide], the IC50 is under 250 nM.

Turning to `N#Cc1cc2c(cc1Cl)N1CCCC[C@@H]1CCCOc1ccc(C(=O)O)cc1S(=O)(=O)N2` [Example 59, (R)-3-chloro-2-cyano-6,7,8,9,9a,10,11,12-octahydro-19H-dibenzo[b,f]pyrido[1,2-h][1]oxa[4]thia[5,8]diazacyclododecine-16-carboxylic acid 18,18-dioxide], the half-inhibitory concentration (IC50) is under 250 nM.

As for `N#Cc1cc2c(cc1Cl)N1CCCC[C@H]1CCCOc1ccc(C(=O)O)cc1S(=O)(=O)N2` [Example 60, (S)-3-chloro-2-cyano-6,7,8,9,9a,10,11,12-octahydro-19H-dibenzo[b,f]pyrido[1,2-h][1]oxa[4]thia[5,8]diazacyclododecine-16-carboxylic acid 18,18-dioxide], the concentration for half-maximal inhibition (IC50) is under 250 nM.

`N#Cc1cc2c(cc1Cl)N1CCCC[C@H]1C/C=C/COc1ccc(C(=O)O)cc1S(=O)(=O)N2` [Example 61, (S,E)-3-chloro-2-cyano-7,8,9,9a,10,13-hexahydro-6H, 20H-dibenzo[b,f]pyrido[1,2-h][1]oxa[4]thia[5,8]diazacyclotridecine-17-carboxylic acid 19,19-dioxide]: the IC50 was under 250 nM.

On to `CS(=O)(=O)NC(=O)c1ccc2c(c1)S(=O)(=O)Nc1cc(C#N)c(F)cc1N1CCCC[C@H]1CCCCO2` [Example 63, (S)-2-cyano-3-fluoro-N-(methylsulfonyl)-7,8,9,9a,10,11,12,13-octahydro-6H, 20H-dibenzo[b,f]pyrido[1,2-h][1]oxa[4]thia[5,8]diazacyclotridecine-17-carboxamide 19,19-dioxide], for which the IC50 is over 1000 nM.

As to `CS(=O)(=O)NC(=O)c1ccc2c(c1)S(=O)(=O)Nc1cc(C#N)c(Cl)cc1N1CCCC[C@H]1CCCO2` [Example 64, (S)-3-chloro-2-cyano-N-(methylsulfonyl)-6,7,8,9,9a,10,11,12-octahydro-19H-dibenzo[b,f]pyrido[1,2-h][1]oxa[4]thia[5,8]diazacyclododecine-16-carboxamide 18,18-dioxide], the concentration for half-maximal inhibition (IC50) is over 1000 nM.

On to `N#Cc1cc2c(cc1Cl)N1CCCC[C@H]1COCCOc1ccc(C(=O)O)cc1S(=O)(=O)N2` [Example 69, (S)-3-chloro-2-cyano-6,7,8,9,9a,10,12,13-octahydro-20H-dibenzo[e,i]pyrido[1,2-k][1,4]dioxa[7]thia[8,11]diazacyclotridecine-17-carboxylic acid 19,19-dioxide], for which the IC50 was under 250 nM.

As for `N#Cc1cc2c(cc1Cl)N1CCCC[C@H]1COC/C=C/c1ccc(C(=O)O)cc1S(=O)(=O)N2` [Example 70, (S,E)-3-chloro-2-cyano-6,7,8,9,9a,10-hexahydro-12H, 20H-dibenzo[e,i]pyrido[2,1-c][1]oxa[8]thia[4,7]diazacyclotridecine-17-carboxylic acid 19,19-dioxide], the half-inhibitory concentration (IC50) was under 250 nM.

`N#Cc1cc2c(cc1Cl)N1CCCC[C@H]1CCC/C=C/c1ccc(C(=O)O)cc1S(=O)(=O)N2` [Example 71, (R,E)-3-chloro-2-cyano-6,7,8,9,9a,10,11,12-octahydro-20H-dibenzo[c,l]pyrido[1,2-e][1]thia[2,5]diazacyclotridecine-17-carboxylic acid 19,19-dioxide]: the half-maximal inhibitory concentration (IC50) fell in the range of 250 to 1000 nM.

Broadly, the IC50 is the concentration at which inhibition is half-maximal.
